Laboratory results from ChEMBL document CHEMBL3232730, “Design, synthesis and bioevaluation of N-trisubstituted pyrimidine derivatives as potent aurora A kinase inhibitors” (Eur J Med Chem, 2014).

Assays:
U-937 = test: Antiproliferative activity against human U937 cells assessed as cell viability after 72 hrs by CCK8 assay; assay type: functional, cell-based; details: Homo sapiens, U-937, 72 h; read-out: IC50
[1] = Antiproliferative activity against human MOLT4 cells assessed as cell viability after 72 hrs by CCK8 assay; assay type: functional, cell-based, MOLT-4; details: Homo sapiens, MOLT-4, 72 h; read-out: IC50
MCF7 = test: Antiproliferative activity against human MCF7 cells assessed as cell viability after 72 hrs by CCK8 assay; assay type: functional, cell-based; details: Homo sapiens, MCF7, 72 h; read-out: IC50
MDA-MB-231 = test: Antiproliferative activity against human MDA-MB-231 cells assessed as cell viability after 72 hrs by CCK8 assay; assay type: functional, cell-based; details: Homo sapiens, MDA-MB-231, 72 h; read-out: IC50
[2] = Antiproliferative activity against human SKBR3 cells assessed as cell viability after 72 hrs by CCK8 assay; assay type: functional, cell-based, SK-BR-3; details: Homo sapiens, SK-BR-3, 72 h; read-out: IC50
A549 = test: Antiproliferative activity against human A549 cells assessed as cell viability after 72 hrs by CCK8 assay; assay type: functional, cell-based; details: A549, 72 h
A-431 = test: Antiproliferative activity against human A431 cells assessed as cell viability after 72 hrs by CCK8 assay; assay type: functional, cell-based; details: Homo sapiens, A-431, 72 h; read-out: IC50
DU-145 = test: Antiproliferative activity against human DU145 cells assessed as cell viability after 72 hrs by CCK8 assay; assay type: functional, cell-based; details: Homo sapiens, DU-145, 72 h; read-out: IC50
PC-3 = test: Antiproliferative activity against human PC3 cells assessed as cell viability after 72 hrs by CCK8 assay; assay type: functional, cell-based; details: Homo sapiens, PC-3, 72 h; read-out: IC50
HeLa = test: Antiproliferative activity against human HeLa cells assessed as cell viability after 72 hrs by CCK8 assay; assay type: functional, cell-based; details: Homo sapiens, HeLa, 72 h; read-out: IC50
NCI-N87 = test: Antiproliferative activity against human NCI-N87 cells assessed as cell viability after 72 hrs by CCK8 assay; assay type: functional, cell-based; details: Homo sapiens, NCI-N87, 72 h; read-out: IC50
HCT-116 = test: Antiproliferative activity against human HCT116 cells assessed as cell viability after 72 hrs by CCK8 assay; assay type: functional, cell-based; details: Homo sapiens, HCT-116, 72 h; read-out: IC50
[3] = Cell cycle arrest in human CNE2 cells assessed as accumulation at G1 phase at 1 uM after 24 hrs by propidium iodide staining-based flow cytometric analysis (reference value: 52.5%); assay type: functional; details: CNE-2
[4] = Cell cycle arrest in human CNE2 cells assessed as accumulation at S phase at 1 uM after 24 hrs by propidium iodide staining-based flow cytometric analysis (reference value: 14.7%); assay type: functional; details: CNE-2
[5] = Cell cycle arrest in human CNE2 cells assessed as accumulation at G2/M phase at 1 uM after 24 hrs by propidium iodide staining-based flow cytometric analysis (reference value: 38.2%); assay type: functional; details: CNE-2
[6] = Cell cycle arrest in human CNE2 cells assessed as accumulation at polyploid period at 1 uM after 24 hrs by propidium iodide staining-based flow cytometric analysis (reference value: […]); assay type: functional; details: CNE-2
[7] = Cell cycle arrest in human CNE2 cells assessed as accumulation at G1 phase at 0.01 uM after 24 hrs by propidium iodide staining-based flow cytometric analysis (reference value: 52.5%); assay type: functional; details: CNE-2
[8] = Cell cycle arrest in human CNE2 cells assessed as accumulation at S phase at 0.01 uM after 24 hrs by propidium iodide staining-based flow cytometric analysis (reference value: 14.9%); assay type: functional; details: CNE-2
[9] = Cell cycle arrest in human CNE2 cells assessed as accumulation at G2/M phase at 0.01 uM after 24 hrs by propidium iodide staining-based flow cytometric analysis (reference value: 31%); assay type: functional; details: CNE-2
[10] = Cell cycle arrest in human CNE2 cells assessed as accumulation at polyploid period at 0.01 uM after 24 hrs by propidium iodide staining-based flow cytometric analysis (reference value: […]); assay type: functional; details: CNE-2
[11] = Cell cycle arrest in human CNE2 cells assessed as accumulation at G1 phase at 0.1 uM after 24 hrs by propidium iodide staining-based flow cytometric analysis (reference value: […]); assay type: functional; details: CNE-2
[12] = Cell cycle arrest in human CNE2 cells assessed as accumulation at S phase at 0.1 uM after 24 hrs by propidium iodide staining-based flow cytometric analysis (reference value: 13.1%); assay type: functional; details: CNE-2
[13] = Cell cycle arrest in human CNE2 cells assessed as accumulation at G2/M phase at 0.1 uM after 24 hrs by propidium iodide staining-based flow cytometric analysis (reference value: 24.5%); assay type: functional; details: CNE-2
[14] = Cell cycle arrest in human CNE2 cells assessed as accumulation at polyploid period at 0.1 uM after 24 hrs by propidium iodide staining-based flow cytometric analysis (reference value: […]%); assay type: functional; details: CNE-2
[15] = Cell cycle arrest in human CNE2 cells assessed as accumulation at G2/M phase after 24 hrs by propidium iodide staining-based flow cytometric analysis; assay type: functional; details: CNE-2
[16] = Antiproliferative activity against human PANC1 cells assessed as cell viability after 72 hrs by CCK8 assay; assay type: functional, cell-based; details: PANC-1, 72 h
Aurora kinase A = target: T1, Aurora kinase A (Homo sapiens, UniProt O14965); test: Inhibition of Aurora A (unknown origin) using FAM-labeled peptide as substrate preincubated for 10 mins followed by substrate addition measured after 60 mins
T1 sequence (O14965 whole entry): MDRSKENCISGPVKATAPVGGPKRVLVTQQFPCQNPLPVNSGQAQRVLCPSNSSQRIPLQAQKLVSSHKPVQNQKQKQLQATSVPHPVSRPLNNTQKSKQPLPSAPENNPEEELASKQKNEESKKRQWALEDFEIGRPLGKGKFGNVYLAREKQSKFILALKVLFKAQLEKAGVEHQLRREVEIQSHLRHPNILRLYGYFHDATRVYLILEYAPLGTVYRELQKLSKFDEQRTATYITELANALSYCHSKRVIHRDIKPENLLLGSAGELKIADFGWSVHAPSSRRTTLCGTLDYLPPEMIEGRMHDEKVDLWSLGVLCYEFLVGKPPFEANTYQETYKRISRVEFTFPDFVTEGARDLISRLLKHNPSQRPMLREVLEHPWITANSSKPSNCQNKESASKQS

HL-60 = test: Antiproliferative activity against human HL60 cells assessed as cell viability after 72 hrs by CCK8 assay; assay type: functional, cell-based; details: Homo sapiens, HL-60, 72 h; read-out: IC50
K562 = test: Antiproliferative activity against human K562 cells assessed as cell viability after 72 hrs by CCK8 assay; assay type: functional, cell-based; details: Homo sapiens, K562, 72 h; read-out: IC50

In the case of `COc1cccc(Nc2nc(Nc3cc(C)[nH]n3)cc(N3CCN(C)CC3)n2)c1`, the IC50 (U-937) is reported as 126 nM, the IC50 [1] is reported as 192 nM and the IC50 (MCF7) is reported as 933 nM. For the same compound, the IC50 (MDA-MB-231) was 240 nM, the IC50 [2] was 11300 nM and the IC50 (A549) was 1690 nM. The IC50 (A-431) was 332 nM, the IC50 (DU-145) was 2650 nM and the IC50 (PC-3) was 1080 nM. The IC50 (HeLa) was 546 nM, the IC50 (NCI-N87) was 7190 nM and the IC50 (HCT-116) was 923 nM. It also gave an Activity [3] of 3.2%, an Activity [4] of 1.7% and an Activity [5] of 92.5%. The Activity [6] was 2.4%, the Activity [7] was 61.7% and the Activity [8] was 8.1%. It also gave an Activity [9] of 26.1%, an Activity [10] of 4.6% and an Activity [11] of 57.2%. It also gave an Activity [12] of 6.9%, an Activity [13] of 32.2% and an Activity [14] of 4%. For the same compound, the Activity [15] was “Dose-dependent effect”, the IC50 [16] was 693 nM and the IC50 (Aurora kinase A) was 22 nM. The IC50 (HL-60) was 397 nM and the IC50 (K562) was 509 nM.
